In patent US9702866B2, “Glatiramer acetate human monocytic cell line-based potency assay” (SYNTHON B.V., priority 2013, dated 2017):

Legend:
human monocytes = human monocytes in vitro; cited from earlier work
THP-1 cells [1] = experiment: lactate dehydrogenase (LDH) release as marker for cell death in IFNγ-activated THP-1 cells; type: cell-based, human; conditions: 100 μg/ml glatiramer acetate, IFNγ (10 ng/ml)-activated THP-1 cells
THP-1 cells [2] = experiment: sIL-1Ra expression of IFNγ-stimulated THP-1 cells after exposure to GA (ELISA); type: cell-based, human; conditions: THP-1 cells in the presence of IFNγ
Description: • Add 10 ml RPMI-1640 Medium (Lonza/Cambrex, #12-70F) with 10% FBS (fetal bovine serum) to a 15 ml sterile tube. • Remove one vial of THP-1 cells (ATCC, #TIB-202) from the liquid nitrogen storage tank and thaw the cells in the vial by gentle agitation in a 37° C.±1° C. water bath until almost totally thawed. • Sterilize the outside of the vial using a wipe, soaked in 70% (v/v) ethanol. • Using good aseptic technique, open the vial and transfer the contents of the vial into a Falcon tube, adding 10 ml of the pre-warmed RPMI-1640 plus 10% FBS. • Spin down at approximately 200 g for 5 minutes. Afterwards, discard the supernatant. • Resuspend the pellet into 10 ml pre-warmed RPMI-1640 plus 10% FBS, and transfer the cell suspension to a T-25 culture flask. • Place the T-25 cell culture flask into a humidified incubator at 37±1° C. and 5.0±1% CO2. Sub-Culturing (Passaging) of THP-1 Cells • THP-1 cells are sub-cultured every 3 or 4 days. • Collect cells and spin down at 200 g for 5 min. […] Supernatant Harvest and ELISA • After 72 hours of incubation centrifuge the 96-well plate at 200 g for 5 minutes. • Transfer 125 μl of the cell-free supernatant/well to a storage plate. • sIL-1Ra is determined in the cell supernatants using the sIL-1Ra ELISA kit from Quantikine, R&D, Minneapolis, Minn. […]

[3] = MS patients, in vivo; cited from earlier work
[4] = test system: Human leukemic monocyte lymphoma cells (U937); experiment: responsiveness of U937 cells to GA; type: cell-based
THP-1 cells [5] = experiment: cell viability by ATP levels (CellTiter-Glo) in IFNγ-activated THP-1 cells; type: cell-based, human; conditions: IFNγ (25 ng/ml)-activated THP-1 cells, after 120 h of culture
Description: In another embodiment of the present invention, the viability of human monocytic cell line cells, particularly THP-1 cells, is measured. Suitable methods to determine viability of human monocytic cell line cells are well-known to the person skilled in the art. One suitable method is measuring ATP levels (for instance the CellTiter-Glo® Luminescent Cell Viability Assay is a homogeneous method to determine the number of viable cells in culture based on quantitation of the ATP present, which signals the presence of metabolically active cells) after a suitable time period, typically after 96-144 hours, particularly after 120 hours. When determining the number of viable cells, similar or slightly higher concentrations of IFNγ can be used as described above.
Upon confirmation of parallelism the reduced model will be fitted and the EC50 for the Reference and test batch will be estimated by EC50RS and EC50TA respectively. The relative potency of the test batch will be estimated as: Relative potency=EC50RS/EC50TA*100% Cell Viability • The number of metabolically active cells in the cultures is determined by the CellTiter-Glo® Luminescent Cell Viability Assay (Promega, G7571). […] It is based on quantitation of adenosine tri-phosphate (ATP), which signals the presence of metabolically active cells.

In the case of Glatiramer acetate [GA], the “production of sIL-1Ra in monocytes” value (human monocytes) is given as “induces the production”, the “cell death (LDH release)” value (THP-1 cells [1]) is given as “induces cell death” and the sIL-1Ra secretion (THP-1 cells [2]) is given as “induces sIL-1Ra secretion”. For the same substance, the sIL-1Ra circulating levels [3] was “enhances sIL-1Ra circulating levels”, the “responsiveness of cells to GA” value [4] was “not responsive” and the “cell viability (ATP levels)” value (THP-1 cells [5]) was “cell viability inhibition”.
